# Tested on: endogenous cellular STAT1 (phosphorylated at Tyr701) in NCI-H1373 cells
# Test: Phospho-STAT1 (Tyr701) LANCE Ultra TR-FRET Detection Assay
# Format: cell-based
# Details: Homo sapiens, NCI-H1373, 48 h, phospho-STAT1 (Tyr701) induction, read-out: NH1373 pSTAT1 EC50
row,Compound,EC50
1,"COc1cnc(-c2cc3ncn(CCC[C@H](C)Nc4cn[nH]c(=O)c4C(F)(F)F)c(=O)c3cc2F)nc1N1CCC1 [Example 188, (S)-7-(4-(azetidin-1-yl)-5-methoxypyrimidin-2-yl)-6-fluoro-3-(4-((6-oxo-5-(trifluoromethyl)-1,6-dihydropyridazin-4-yl)amino)pentyl)quinazolin-4(3H)-one]",42 nM
2,"C[C@@H](CCCn1cnc2cc(-c3ncc(C(F)(F)F)c(N4CCC4)n3)c(F)cc2c1=O)Nc1cn[nH]c(=O)c1C(F)(F)F [Example 189, (S)-7-(4-(azetidin-1-yl)-5-(trifluoromethyl)pyrimidin-2-yl)-6-fluoro-3-(4-((6-oxo-5-(trifluoromethyl)-1,6-dihydropyridazin-4-yl)amino)pentyl)quinazolin-4(3H)-one]",14.7 nM
3,"C[C@@H](CCCn1cnc2cc(-c3ncc(C(F)(F)F)c(N4CC(C)(O)C4)n3)c(F)cc2c1=O)Nc1cn[nH]c(=O)c1C(F)(F)F [Example 190, (S)-6-fluoro-7-(4-(3-hydroxy-3-methylazetidin-1-yl)-5-(trifluoromethyl)pyrimidin-2-yl)-3-(4-((6-oxo-5-(trifluoromethyl)-1,6-dihydropyridazin-4-yl)amino)pentyl)quinazolin-4(3H)-one]",29.9 nM
4,"C[C@@H](CCCn1ccc2cc(-c3ncc(C(F)(F)F)c(N4CC(C)(O)C4)n3)c(F)cc2c1=O)Nc1cn[nH]c(=O)c1C(F)(F)F [Example 191, (S)-7-fluoro-6-(4-(3-hydroxy-3-methylazetidin-1-yl)-5-(trifluoromethyl)pyrimidin-2-yl)-2-(4-((6-oxo-5-(trifluoromethyl)-1,6-dihydropyridazin-4-yl)amino)pentyl)isoquinolin-1(2H)-one]",26.9 nM
5,"CCOc1cnc(-c2cc3ccn(CCC[C@H](C)Nc4cn[nH]c(=O)c4C(F)(F)F)c(=O)c3cc2F)nc1N [Example 192, (S)-6-(4-amino-5-ethoxypyrimidin-2-yl)-7-fluoro-2-(4-((6-oxo-5-(trifluoromethyl)-1,6-dihydropyridazin-4-yl)amino)pentyl)isoquinolin-1(2H)-one]",2.24 nM
6,"CCOc1ccc(-c2cc3ccn(CCC[C@H](C)Nc4cn[nH]c(=O)c4C(F)(F)F)c(=O)c3cc2F)nc1N [Example 193, (S)-6-(6-amino-5-ethoxypyridin-2-yl)-7-fluoro-2-(4-((6-oxo-5-(trifluoromethyl)-1,6-dihydropyridazin-4-yl)amino)pentyl)isoquinolin-1(2H)-one]",22.3 nM
7,"C[C@@H](CCCn1ccc2cc(-c3ncc(OC(F)F)c(N)n3)c(F)cc2c1=O)Nc1cn[nH]c(=O)c1C(F)(F)F [Example 194, (S)-6-(4-amino-5-(difluoromethoxy)pyrimidin-2-yl)-7-fluoro-2-(4-((6-oxo-5-(trifluoromethyl)-1,6-dihydropyridazin-4-yl)amino)pentyl)isoquinolin-1(2H)-one]",6.6 nM

# Further lines, results first:
row,EC50,Compound
1,8.14 nM,"COc1ccc(-c2cc3ccn(CCC[C@H](C)Nc4cn[nH]c(=O)c4C(F)(F)F)c(=O)c3cc2F)nc1N [Example 195, (S)-6-(6-amino-5-methoxypyridin-2-yl)-7-fluoro-2-(4-((6-oxo-5-(trifluoromethyl)-1,6-dihydropyridazin-4-yl)amino)pentyl)isoquinolin-1(2H)-one]"
2,6.13 nM,"[2H]C([2H])([2H])Oc1cnc(-c2cc3ccn(CCC[C@H](C)Nc4cn[nH]c(=O)c4C(F)(F)F)c(=O)c3cc2F)nc1N [Example 196, 6-[4-amino-5-(trideuteriomethoxy)pyrimidin-2-yl]-7-fluoro-2-[(4S)-4-[[6-oxo-5-(trifluoromethyl)-1H-pyridazin-4-yl]amino]pentyl]isoquinolin-1-one]"
3,638 nM,"C[C@@H](CCCn1ccc2cc(-c3nccc(C(F)F)n3)c(F)cc2c1=O)Nc1cn[nH]c(=O)c1C(F)(F)F [Example 197, (S)-6-(4-(difluoromethyl)pyrimidin-2-yl)-7-fluoro-2-(4-((6-oxo-5-(trifluoromethyl)-1,6-dihydropyridazin-4-yl)amino)pentyl)isoquinolin-1(2H)-one]"
